# Columns and labels:
# [1] = system: platelet-poor blood plasma; test: Clot initiation in a 25 mm column of non-flowing platelet-poor blood plasma; assay type: biochemical
# Protocol: Thr-CaCO3 was mixed at a 1:1 mass ratio with TXA-NH3^+ to yield a propelling particle mixture. A non-propelling mixture consisted of a 1:1 ratio of Thr-CaCO3 with lyophilized TXA-NH2. The ability of the two mixtures to initiate clotting in platelet-poor blood plasma was measured and compared against addition of a similar amount of thrombin (approximately 1 pmol) in HEPES buffer and a control receiving no treatment.
# The ability of particles to clot both at the site of application and below the site was assessed by injecting particles near the top of a column of plasma that was 25 mm tall. Initiation of clotting was measured both at the top and the bottom of the column by monitoring the formation of fibrin. The blood plasma was laced with green-fluorescent beads in order to monitor movement and formation of solid fibrin mesh and clot initiation. Clotting at the top was measured visually, and when the plasma became opaque or appeared gelled, clotting was confirmed by gentle manipulation with a micropipette.
# Both propelling and non-propelling particles immediately clotted plasma at the top of the column, which was detected within 2 min. The same response occurred when a solution containing an equivalent amount of dissolved thrombin was added. However, there were much larger differences in the clot times at the bottom of the columns of plasma between these samples.
# Clotting took about 30 min, as the clot needed to propagate down through the column by diffusion. Clotting at the bottom was faster using non-propelled particles, occurring in 3.7 min as compared to 10 min for the propelled particles. […] Most propelled particles reacted and produced gas at the top so only a fraction of the particles sank to the bottom yielding a slightly slower clot time compared to non-propelling particles. Although the propelled particles out-performed the thrombin solution in this assay, a particular advantage for the propelling particles would come from an ability to propel though flowing solutions.
# flowing plasma = test: Clotting and occlusion of plasma flowing through a glass capillary tube; assay type: biochemical
# Protocol: To show propelling thrombin particles clotting flowing plasma, particles were applied to the bottom of plasma flowing through a glass capillary tube (FIG. 3D,E). A microfluidic system was used to control the flow of plasma, and monitor the flow to determine when clotting occluded flow in the capillary tube. At flow velocities between 0.006 and 3.4 mm/s, the background occlusion times in the system were approximately 30 min. […] At high flows, the clot was easily pushed out and the flow of plasma resumed. […] The particles propelled upwards, against flow, and accumulated high within the tubing. Clotting was seen to initiate at regions with the highest concentration of particles.
substance,measurement,setting,value
thrombin [thrombin solution],acceleration of clot initiation at the bottom compared to the control,[1]; bottom of 25 mm column,no acceleration of clot initiation
same,clot time at the bottom of the column,"[1]; bottom of 25 mm column, non-flowing plasma",about 30 min
same,clot time at the top of the column,"[1]; site of application, non-flowing plasma",same response
same,flow velocity up to which occlusion occurred,flowing plasma,up to 0.06 mm/s
same,occlusion versus controls at 0.6 mm/s,flowing plasma; flow velocity 0.6 mm/s,no difference from controls
